Laboratory results published in US20170190671A1, “BIS(ARYL)CATECHOL DERIVATIVES AS HERBICIDES” (E I DU PONT DE NEMOURS AND COMPANY, priority 2014, published 2017).

Columns and labels:
Assay type in all cases: in vivo
[1] = tested on: large (Lg) crabgrass (Digitaria sanguinalis); experiment: Test E preemergence; conditions: scale 0 to 100
Description: Seeds of plant species selected from corn (Zea mays), soybean (Glycine max), velvetleaf (Abutilon theophrasti), cocklebur (common cocklebur, Xanthium strumarium), lambsquarters (Chenopodium album), wild poinsettia (Euphorbia heterophylla), palmer pigweed (Amaranthus palmeri), waterhemp (common waterhemp, Amaranthus rudis), surinam grass (Brachiaria decumbens), large (Lg) crabgrass (Digitaria sanguinalis), Brazilian crabgrass (Digitaria horizontalis), fall panicum (Panicum dichotomiflorum), giant foxtail (Setaria faberii), green foxtail (Setaria viridis), goosegrass (Eleusine indica), johnsongrass (Sorghum halepense), ragweed (common ragweed, Ambrosia elatior), barnyardgrass (Echinochloa crus-galli), sandbur (southern sandbur, Cenchrus echinatus), arrowleaf sida (Sida rhombifolia), Italian ryegrass (Lolium multiflorum), dayflower (Virginia (VA) dayflower, Commelina virginica), field bindweed (Convolvulus arvensis), morningglory (Ipomoea coccinea), nightshade (eastern black nightshade, Solanum ptycanthum), kochia (Kochia scoparia), yellow nutsedge (Cyperus esculentus), horseweed (Conyza canadensis), and hairy beggarticks (Bidens pilosa), were planted into a silt loam soil and treated preemergence with test chemicals formulated in a non-phytotoxic solvent mixture which included a surfactant.
At the same time, plants from these crop and weed species and also waterhemp_RES1, (ALS & Triazine resistant common waterhemp, Amaranthus rudis), and waterhemp_RES2, (ALS & HPPD resistant common waterhemp, Amaranthus rudis) were planted in pots containing Redi-Earth® planting medium (Scotts Company, 14111 Scottslawn Road, Marysville, Ohio 43041) comprising spaghnum peat moss, vermiculite, wetting agent and starter nutrients were treated with postemergence applications of test chemicals formulated in the same manner. Plants ranged in height from 2 to 18 cm for postemergence treatments (1- to 4-leaf stage). Treated plants and controls were maintained in a greenhouse for 14 to 21 days, after which time all species were compared to controls and visually evaluated. Plant response ratings, summarized in Table E, are based on a scale of 0 to 100 where 0 is no effect and 100 is complete control. A dash (-) response means no test result.

[2] = tested on: lambsquarters (Chenopodium album); experiment: Test C preemergence; conditions: Chenopodium album, pre-emergence, 336 h, scale 0 to 100, read-out: Plant response rating, Lambsquarters
Summary of the method: (§1)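 Treatment is preemergence to seeds in a loam and sand soil, or postemergence to plants 2 to 18 cm high in a peat moss-based medium. The compound is delivered in a non-phytotoxic solvent mixture including surfactant. Effects are judged by eye 13 to 15 days later on a 0 to 100 scale.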

[3] = tested on: ragweed (common ragweed, Ambrosia elatior); experiment: Test C preemergence; conditions: Ambrosia artemisiifolia, pre-emergence, 336 h, scale 0 to 100, read-out: Plant response rating, Ragweed
Summary of the method: as §1

corn (Zea mays) = experiment: Test C preemergence; conditions: Zea mays, pre-emergence, 336 h, scale 0 to 100
Summary of the method: as §1

[4] = tested on: giant foxtail (Setaria faberii); experiment: Test C preemergence; conditions: Setaria faberi, pre-emergence, 336 h, scale 0 to 100, read-out: Plant response rating, Foxtail, Giant
Summary of the method: as §1

[5] = tested on: Italian ryegrass (Lolium multiflorum); experiment: Test C preemergence; conditions: Lolium multiflorum, pre-emergence, 336 h, scale 0 to 100, read-out: Plant response rating, Ryegrass, Italian
Summary of the method: as §1

[6] = tested on: johnsongrass (Sorghum halepense); experiment: Test C preemergence; conditions: Sorghum halepense, pre-emergence, 336 h, scale 0 to 100, read-out: Plant response rating, Johnsongrass
Summary of the method: as §1

[7] = tested on: velvetleaf (Abutilon theophrasti); experiment: Test C preemergence; conditions: Abutilon theophrasti, pre-emergence, scale 0 to 100, read-out: Plant response rating, Velvetleaf
Summary of the method: as §1

[8] = tested on: pigweed (Amaranthus retroflexus); experiment: Test C preemergence; conditions: Amaranthus retroflexus, pre-emergence, 336 h, scale 0 to 100, read-out: Plant response rating, Pigweed
Summary of the method: as §1

[9] = tested on: large (Lg) crabgrass (Digitaria sanguinalis); experiment: Test C preemergence; conditions: Digitaria sanguinalis, pre-emergence, 336 h, scale 0 to 100, read-out: Plant response rating, Crabgrass, Large
Summary of the method: as §1

[10] = tested on: winter wheat (Triticum aestivum); experiment: Test C preemergence; conditions: Triticum aestivum, pre-emergence, 336 h, scale 0 to 100, read-out: Plant response rating, Wheat
Summary of the method: as §1

soybean (Glycine max) = experiment: Test C preemergence; conditions: Glycine max, pre-emergence, scale 0 to 100, read-out: Plant response rating, Soybean
Summary of the method: as §1

[11] = tested on: yellow nutsedge (Cyperus esculentus); experiment: Test C preemergence; conditions: Cyperus, pre-emergence, 336 h, scale 0 to 100, read-out: Plant response rating, Nutsedge, Yellow
Summary of the method: as §1

[12] = tested on: barnyardgrass (Echinochloa crus-galli); experiment: Test C preemergence; conditions: Echinochloa crus-galli, pre-emergence, read-out: Plant response rating, Barnyardgrass
Summary of the method: as §1

[13] = tested on: blackgrass (Alopecurus myosuroides); experiment: Test C preemergence; conditions: Alopecurus myosuroides, pre-emergence, 336 h, scale 0 to 100, read-out: Plant response rating, Blackgrass
Summary of the method: as §1

Fc1cccc(Oc2ncc(Cl)cn2)c1Oc1ncc(Cl)cn1 [Compound 21, 2,2′-[[3-fluoro-1,2-phenylene]bis(oxy)]bis[5-chloropyrimidine]]
0%: plant injury at 16 g/ha ([10]; Preemergence, 16 g ai/ha) | pest or weed control at 16 g/ha ([11]; Preemergence, 16 g ai/ha)
75: Plant response rating, Crabgrass, Large ([1]; 31 g ai/ha)
50: Plant response rating, Crabgrass, Large ([1]; 16 g ai/ha)
25%: Corn plant response rating (crop injury, 0 = no effect, 100 = complete kill) at 31 g/ha (corn (Zea mays); 31 g ai/ha, preemergence)
95%: plant injury at 62 g/ha (soybean (Glycine max); 62 g ai/ha, preemergence)
30%: pest or weed control at 31 g/ha ([13]; 31 g ai/ha, preemergence) | pest or weed control at 16 g/ha ([13]; Preemergence, 16 g ai/ha)
50%: pest or weed control at 31 g/ha ([5]; 31 g ai/ha, preemergence) | pest or weed control at 31 g/ha ([6]; 31 g ai/ha, preemergence) | plant injury at 62 g/ha ([10]; 62 g ai/ha, preemergence)
65%: pest or weed control at 16 g/ha ([3]; Preemergence, 16 g ai/ha)
90%: pest or weed control at 16 g/ha ([4]; Preemergence, 16 g ai/ha) | pest or weed control at 125 g/ha ([5]; 125 g ai/ha, preemergence) | plant injury at 125 g/ha ([10]; 125 g ai/ha, preemergence) | plant injury at 31 g/ha (soybean (Glycine max); 31 g ai/ha, preemergence) | pest or weed control at 62 g/ha ([13]; 62 g ai/ha, preemergence) | pest or weed control at 125 g/ha ([13]; 125 g ai/ha, preemergence)
10%: pest or weed control at 16 g/ha ([5]; Preemergence, 16 g ai/ha)
35%: pest or weed control at 62 g/ha ([11]; 62 g ai/ha, preemergence) | pest or weed control at 16 g/ha ([12]; Preemergence, 16 g ai/ha, scale 0 to 100 (0 no effect, 100 complete control))
95: Plant response rating, Crabgrass, Large ([1]; 62 g ai/ha)
85%: pest or weed control at 31 g/ha ([3]; 31 g ai/ha, preemergence) | pest or weed control at 62 g/ha ([3]; 62 g ai/ha, preemergence) | pest or weed control at 125 g/ha ([3]; 125 g ai/ha, preemergence) | pest or weed control at 62 g/ha ([5]; 62 g ai/ha, preemergence) | pest or weed control at 62 g/ha ([6]; 62 g ai/ha, preemergence) | plant injury at 16 g/ha (soybean (Glycine max); Preemergence, 16 g ai/ha) | pest or weed control at 125 g/ha ([11]; 125 g ai/ha, preemergence) | pest or weed control at 31 g/ha ([12]; 31 g ai/ha, preemergence, scale 0 to 100)
40%: plant injury at 31 g/ha ([10]; 31 g ai/ha, preemergence)
45%: Corn plant response rating (crop injury, 0 = no effect, 100 = complete kill) at 62 g/ha (corn (Zea mays); 62 g ai/ha, preemergence)
5%: Corn plant response rating (crop injury, 0 = no effect, 100 = complete kill) at 16 g/ha (corn (Zea mays); Preemergence, 16 g ai/ha) | pest or weed control at 16 g/ha ([6]; Preemergence, 16 g ai/ha) | pest or weed control at 31 g/ha ([11]; 31 g ai/ha, preemergence)
100: Plant response rating, Crabgrass, Large ([1]; 125 g ai/ha)
98%: pest or weed control at 125 g/ha ([2]; 125 g ai/ha, preemergence) | Corn plant response rating (crop injury, 0 = no effect, 100 = complete kill) at 125 g/ha (corn (Zea mays); 125 g ai/ha, preemergence) | pest or weed control at 125 g/ha ([6]; 125 g ai/ha, preemergence) | pest or weed control at 16 g/ha ([9]; Preemergence, 16 g ai/ha) | plant injury at 125 g/ha (soybean (Glycine max); 125 g ai/ha, preemergence)
100%: pest or weed control at 31 g/ha ([2]; 31 g ai/ha, preemergence) | pest or weed control at 62 g/ha ([2]; 62 g ai/ha, preemergence) | pest or weed control at 16 g/ha ([2]; Preemergence, 16 g ai/ha) | pest or weed control at 31 g/ha ([4]; 31 g ai/ha, preemergence) | pest or weed control at 62 g/ha ([4]; 62 g ai/ha, preemergence) | pest or weed control at 125 g/ha ([4]; 125 g ai/ha, preemergence) | pest or weed control at 31 g/ha ([7]; 31 g ai/ha, preemergence) | pest or weed control at 62 g/ha ([7]; 62 g ai/ha, preemergence) | pest or weed control at 125 g/ha ([7]; 125 g ai/ha, preemergence) | pest or weed control at 16 g/ha ([7]; Preemergence, 16 g ai/ha) | pest or weed control at 31 g/ha ([8]; 31 g ai/ha, preemergence) | pest or weed control at 62 g/ha ([8]; 62 g ai/ha, preemergence) | pest or weed control at 125 g/ha ([8]; 125 g ai/ha, preemergence) | pest or weed control at 16 g/ha ([8]; Preemergence, 16 g ai/ha) | pest or weed control at 31 g/ha ([9]; 31 g ai/ha, preemergence) | pest or weed control at 62 g/ha ([9]; 62 g ai/ha, preemergence) | pest or weed control at 125 g/ha ([9]; 125 g ai/ha, preemergence) | pest or weed control at 62 g/ha ([12]; 62 g ai/ha, preemergence, scale 0 to 100) | pest or weed control at 125 g/ha ([12]; 125 g ai/ha, preemergence, scale 0 to 100)
